One experiment concerns the target T1, NET (h) (Homo sapiens, UniProt P23975).
T1 construct: Eurofins (contract panel)
Kind of experiment: Radioligand binding panel, NET (h) (antagonist radioligand). To be noted: % inhibition of control specific binding. As for the experimental part:
(§1) Oxafuramine is tested at 10^−5 M, calculated as a % inhibition of control specific binding of a radioactively labeled ligand specific for each target.
(§2) This binding profile panel was broadly defined with roughly an equal number of selective, central and peripheral therapeutically relevant targets, including native animal tissues, radioligands and specific enzymes involved in cell cycle regulation in accordance with Eurofins Standard Operating Procedure (www.eurofins.fr).
(§3) For radioligand binding experiments, the half maximal inhibitory concentration (IC50) and the half maximal effective concentration (EC50) values were determined (via computer software) by nonlinear regression analysis of the competition curves using Hill equation curve fitting. The inhibition constants (Ki) were calculated using the Cheng-Prusoff equation (Ki=IC50/(1+(L/KD)), where L is the concentration of radioligand in the assay, and KD is the affinity of the radioligand for the receptor.
(§4) The results are expressed as a % control specific binding ([measured specific binding/control specific binding]×100) and as a % inhibition of control specific binding (100−[(measured specific binding/control specific binding)×100]) obtained in the presence of the test compounds. […]

The target of the next experiment is T2, GABA-A1 (Homo sapiens, UniProt P14867+P47870).
T2 construct: Eurofins (contract panel)
T2 sequence (P14867 28-456): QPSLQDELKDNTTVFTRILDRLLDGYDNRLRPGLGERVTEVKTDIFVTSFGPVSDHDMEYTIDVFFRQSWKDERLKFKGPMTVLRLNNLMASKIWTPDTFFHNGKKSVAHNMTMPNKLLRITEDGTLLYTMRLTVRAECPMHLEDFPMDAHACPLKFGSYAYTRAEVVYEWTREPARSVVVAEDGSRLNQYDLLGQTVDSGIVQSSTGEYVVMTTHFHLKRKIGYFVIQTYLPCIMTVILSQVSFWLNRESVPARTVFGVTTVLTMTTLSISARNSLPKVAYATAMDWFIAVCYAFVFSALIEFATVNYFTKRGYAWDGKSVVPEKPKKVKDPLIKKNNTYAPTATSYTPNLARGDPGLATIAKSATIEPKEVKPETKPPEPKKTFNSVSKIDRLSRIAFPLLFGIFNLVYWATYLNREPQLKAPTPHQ
T2 sequence (P47870 25-512 limits assumed): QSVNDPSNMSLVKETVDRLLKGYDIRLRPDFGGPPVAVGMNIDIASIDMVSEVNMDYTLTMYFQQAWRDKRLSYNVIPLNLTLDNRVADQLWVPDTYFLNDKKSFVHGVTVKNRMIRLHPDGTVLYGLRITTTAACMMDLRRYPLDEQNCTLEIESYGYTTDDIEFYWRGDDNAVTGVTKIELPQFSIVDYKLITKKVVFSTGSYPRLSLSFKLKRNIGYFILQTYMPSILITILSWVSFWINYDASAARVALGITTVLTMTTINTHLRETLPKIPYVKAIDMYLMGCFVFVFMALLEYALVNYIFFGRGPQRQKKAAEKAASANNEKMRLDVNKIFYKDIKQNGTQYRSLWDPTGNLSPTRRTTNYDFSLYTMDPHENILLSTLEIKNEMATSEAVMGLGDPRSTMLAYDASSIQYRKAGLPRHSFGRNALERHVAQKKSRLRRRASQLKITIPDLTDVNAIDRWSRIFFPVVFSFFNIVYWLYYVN
T2 sequence (P18507 40-475 partner): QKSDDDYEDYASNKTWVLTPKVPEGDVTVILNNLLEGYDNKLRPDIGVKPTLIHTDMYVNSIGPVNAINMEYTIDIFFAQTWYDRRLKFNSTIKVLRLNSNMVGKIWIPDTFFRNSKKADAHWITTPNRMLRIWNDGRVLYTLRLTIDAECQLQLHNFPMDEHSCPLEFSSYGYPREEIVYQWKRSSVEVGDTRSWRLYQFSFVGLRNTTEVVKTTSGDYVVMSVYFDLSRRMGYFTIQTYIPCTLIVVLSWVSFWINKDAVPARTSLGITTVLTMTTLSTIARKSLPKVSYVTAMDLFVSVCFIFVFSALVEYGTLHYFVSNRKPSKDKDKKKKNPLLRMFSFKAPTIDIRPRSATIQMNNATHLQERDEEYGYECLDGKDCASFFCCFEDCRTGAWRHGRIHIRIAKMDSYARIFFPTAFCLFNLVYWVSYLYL
Kind of experiment: Radioligand binding panel, GABA-A1 (antagonist radioligand). The conditions noted are these: 10^−5 M; % inhibition of control specific binding. As for the experimental part:
as §1, §2, §3, §4

A further experiment has as its target T3, M5 (h) (Homo sapiens, UniProt P08912).
T3 construct: Eurofins (contract panel)
T3 sequence (P08912 1-532): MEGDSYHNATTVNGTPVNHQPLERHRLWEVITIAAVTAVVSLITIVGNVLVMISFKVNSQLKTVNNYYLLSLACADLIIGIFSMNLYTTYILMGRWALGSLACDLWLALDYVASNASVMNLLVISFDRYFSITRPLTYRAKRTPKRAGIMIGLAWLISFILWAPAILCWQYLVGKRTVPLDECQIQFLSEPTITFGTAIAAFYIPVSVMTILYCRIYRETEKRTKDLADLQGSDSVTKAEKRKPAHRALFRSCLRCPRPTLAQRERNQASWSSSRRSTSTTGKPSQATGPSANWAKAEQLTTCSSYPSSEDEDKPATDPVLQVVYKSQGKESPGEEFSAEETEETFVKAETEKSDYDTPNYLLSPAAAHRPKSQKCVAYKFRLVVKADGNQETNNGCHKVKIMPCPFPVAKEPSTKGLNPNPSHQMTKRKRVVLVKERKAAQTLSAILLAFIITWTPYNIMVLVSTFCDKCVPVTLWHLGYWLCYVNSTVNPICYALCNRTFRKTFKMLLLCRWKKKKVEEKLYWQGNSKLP
Description: Radioligand binding panel, M5 (h) (antagonist radioligand). To be noted: % inhibition of control specific binding. The method, then:
as §1, §2, §3, §4

The subject of experiment [1] is memory (recognition of the familiar object) in mice. Kind of experiment: Novel Object Recognition (NOR) test in mice. The experiment is classed as in vivo, C57BL/6J, male. To be noted: choice trial, mean, N = 16. As for the experimental part:
The test was carried out in circular boxes (30 cm diameter, 40 cm high). The objects to be discriminated (L≈1≈h≈3-4 cm) differed in both color and shape and were referred as yellow duck and blue lego. They were fixed with a magnet to the floor of the boxes at 5 cm of the wall, 20 cm distant. Apparently, they have no natural significance for mice and they have never been associated with a reinforcement. In order to rule out the possibility of scent traces left on the objects and therefore the dependency of the recognition capacity of mice on the olfactory cue, the objects and the ground of the box were washed with an odorless disinfectant (Sanicid® diluted in water) and dried between each trial. A camcorder was fixed to the ceiling above the box to record the animals' activity. The experiment was analyzed blindly at a later time.
On the week before the test, animals were handled by the experimenter in charge of the experiment in order to be not stressed at the time of testing. For this purpose, the experimenter placed a small amount of litter, and then the mouse on its hand.
The NOR test was completed over five days (see FIG. 1): • Day 1: Habituation trial. Animals were individually placed for a 15-min free exploration session in empty open boxes. • Day 2. Treatment administration and sample trial. […] They were individually placed 30 min after in the apparatus for a 6-min session with two identical objects (Duck, 50% of animals or Lego, 50% of animals). • Day 3. Choice trial. The mice were individually placed for a 6-min session in the apparatus with two objects (Duck and Lego), one of the objects presented in sample trials (termed as familiar objects) and a novel object (Lego, 50% of animals or Duck, 50% of animals).
The sample and choice trials were recorded with the camera located above the apparatus. The time spent by mice in exploring the objects was measured during the sample trial and the choice trial. Exploration of an object was defined as follows: directing the nose to the object at a distance≤2 cm and/or touching it with the nose or forelimbs; turning around or biting the object, or sitting on the object were not considered as exploratory behavior.
• L=exploration time of the left object in the sample trial. • R=exploration time of the right object in the sample trial. • N=exploration time of the new object in the choice trial. • F=exploration time of the familiar object in the choice trial.
• Exploration indices: • ST=L+R=exploration time (left object+right object) in the sample trial. • CT=N+F=exploration time (new object+familiar object) in the choice trial. • Two memory indices: • N-F=difference of exploration time between the new object and the familiar object in the choice trial.
Statistical analyses: • Read-outs: DI, N-F, ST, CT, N, F • Unpaired Student's t test: Donep 2 group vs. Control group. • One-way ANOVA, Dunnett test: • NLS-12 groups vs. Control group. • NLS-12 groups vs. Donep 2 group. • Read-outs: DI and N-F, for all groups, paired Student's t test, difference vs. 0. • Body weight: one-way ANOVA.

T1 sequence (P23975 whole entry): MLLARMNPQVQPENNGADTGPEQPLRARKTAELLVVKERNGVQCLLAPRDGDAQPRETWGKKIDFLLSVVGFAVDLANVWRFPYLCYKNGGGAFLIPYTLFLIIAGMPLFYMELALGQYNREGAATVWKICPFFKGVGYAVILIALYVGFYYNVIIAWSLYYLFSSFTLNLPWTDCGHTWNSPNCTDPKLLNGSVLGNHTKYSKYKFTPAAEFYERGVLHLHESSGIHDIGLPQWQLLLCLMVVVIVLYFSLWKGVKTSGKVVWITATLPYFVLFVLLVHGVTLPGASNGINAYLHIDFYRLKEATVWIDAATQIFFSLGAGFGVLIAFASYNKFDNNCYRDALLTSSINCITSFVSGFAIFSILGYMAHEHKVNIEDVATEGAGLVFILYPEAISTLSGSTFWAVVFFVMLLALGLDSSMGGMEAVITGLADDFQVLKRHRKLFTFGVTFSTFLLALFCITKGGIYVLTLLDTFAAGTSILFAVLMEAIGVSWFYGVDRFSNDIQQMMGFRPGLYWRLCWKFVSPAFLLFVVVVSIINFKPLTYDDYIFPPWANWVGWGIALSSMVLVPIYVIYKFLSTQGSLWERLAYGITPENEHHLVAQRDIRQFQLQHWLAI

Regarding `CCN[C@H](Cc1ccccc1)[C@H]1CCCO1` [Oxafuramine, (1R)—N-ethyl-1-[(2R)-oxolan-2-yl]-2-phenylethanamine], the inhibition at 10 µM at NET (h) (10^−5 M) was 53.3%; at GABA-A1 it was 19.2%; at M5 (h) (10^−5 M), approximately 25%. Further, on NET (h), the “% Inhibition at 10^−5M, NET (h) (antagonist radioligand)” value is reported as “appreciable potencies”. The “% Inhibition at 10^−5M, M5 (h) (antagonist radioligand)” value on M5 (h) came out at 25.4%. Further, the “F Exploration time of familiar object” value in experiment [1] (NLS-12 1 mg/kg i.p.) stood at 12.0 s; in experiment [1] (NLS-12 4 mg/kg i.p.) it was 11.0 s; in experiment [1] (NLS-12 8 mg/kg i.p.), 9.9 s. Moreover, the “N Exploration time of novel object” value amounted to 12.6 s in experiment [1] (NLS-12 1 mg/kg i.p.), 14.7 s in experiment [1] (NLS-12 4 mg/kg i.p.) and 15.9 s in experiment [1] (NLS-12 8 mg/kg i.p.).

Broadly, the inhibition is the drop in the measured response relative to a control, in per cent. For orientation: % Inhibition means the percentage by which the read-out fell short of the control. Low values mean a weak effect, high ones a strong effect.

Values taken from patent US20250268859A1, “OXAFURAMINE, (1R)-N-ETHYL-1-[(2R)-OXOLAN-2-YL]-2-[…], HYDROCHLORIDE AND DERIVATIVES THEREOF FOR TREATING ALZHEIMER'S DISEASE (AD), […] […], […] WITH LEWY BODIES (DLB), MIXED […], FRON[…] DEGENERATION (FTLD), AND PARKINSON'S DISEASE (PD)” (NLS Pharmaceutics AG, priority 2021, published 2025).
